Laboratory results published in ChEMBL document CHEMBL4257568, “Synthesis, hepatotoxic evaluation and antipyretic activity of nitrate ester analogs of the acetaminophen derivative SCP-1” (Bioorg Med Chem Lett, 2018).
Activity calls are given as the source filed them. The calls are words filed in the database; no cut-off is given here.

How the values were obtained:
HepaRG [1] = assay: Hepatotoxicity in human HepaRG cells assessed as GSH depletion at 500 uM after 3 to 12 hrs by ThiolTracker Violet dye-based fluorescence assay; format: toxicity, cell-based
HepaRG [2] = assay: Hepatotoxicity in human HepaRG cells assessed as GSH depletion at 500 uM measured over 12 hrs by ThiolTracker Violet dye-based fluorescence assay; format: toxicity, cell-based
HepaRG [3] = assay: Hepatotoxicity in human HepaRG cells assessed as GSH depletion at 1000 uM after 12 hrs by ThiolTracker Violet dye-based fluorescence assay; format: toxicity, cell-based
HepaRG [4] = assay: Hepatotoxicity in human HepaRG cells assessed as necrotic cell death at 500 uM measured over 12 hrs by LDH assay; format: toxicity, cell-based
HepaRG [5] = assay: Hepatotoxicity in human HepaRG cells assessed as necrotic cell death at 1000 uM measured over 12 hrs by LDH assay; format: toxicity, cell-based
Cytochrome P450 3A4 = Cytochrome P450 3A4 (Homo sapiens, UniProt P08684); assay: Inhibition of human CYP3A4 expressed in baculosomes at 1 uM using BOMCC as substrate preincubated for 20 mins followed by substrate and NADP+ addition and measured after 30 mins by fluorescence assay; format: ADME; conditions: recombinant enzyme, 0.5 h
Cytochrome P450 3A4, sequence (P08684 whole entry): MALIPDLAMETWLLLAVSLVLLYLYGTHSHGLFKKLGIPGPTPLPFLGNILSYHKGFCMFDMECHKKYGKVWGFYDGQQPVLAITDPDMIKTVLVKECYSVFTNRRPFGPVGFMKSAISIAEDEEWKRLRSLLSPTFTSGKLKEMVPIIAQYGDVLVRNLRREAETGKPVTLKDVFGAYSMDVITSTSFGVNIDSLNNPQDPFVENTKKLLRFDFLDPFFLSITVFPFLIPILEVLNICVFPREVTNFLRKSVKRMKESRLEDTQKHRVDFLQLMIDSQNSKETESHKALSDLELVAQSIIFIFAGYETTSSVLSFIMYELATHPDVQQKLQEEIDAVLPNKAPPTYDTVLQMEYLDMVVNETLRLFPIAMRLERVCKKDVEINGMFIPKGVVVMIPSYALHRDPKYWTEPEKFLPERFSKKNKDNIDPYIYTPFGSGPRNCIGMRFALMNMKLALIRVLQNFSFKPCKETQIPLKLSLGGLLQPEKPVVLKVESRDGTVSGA

Cytochrome P450 2E1 = Cytochrome P450 2E1 (Homo sapiens, UniProt P05181); assay: Inhibition of human CYP2E1 expressed in baculosomes at 1 uM using EOMCC as substrate preincubated for 20 mins followed by substrate and NADP+ addition and measured after 30 mins by fluorescence assay; format: ADME; conditions: recombinant enzyme, 0.5 h
Cytochrome P450 2E1, sequence (P05181 whole entry): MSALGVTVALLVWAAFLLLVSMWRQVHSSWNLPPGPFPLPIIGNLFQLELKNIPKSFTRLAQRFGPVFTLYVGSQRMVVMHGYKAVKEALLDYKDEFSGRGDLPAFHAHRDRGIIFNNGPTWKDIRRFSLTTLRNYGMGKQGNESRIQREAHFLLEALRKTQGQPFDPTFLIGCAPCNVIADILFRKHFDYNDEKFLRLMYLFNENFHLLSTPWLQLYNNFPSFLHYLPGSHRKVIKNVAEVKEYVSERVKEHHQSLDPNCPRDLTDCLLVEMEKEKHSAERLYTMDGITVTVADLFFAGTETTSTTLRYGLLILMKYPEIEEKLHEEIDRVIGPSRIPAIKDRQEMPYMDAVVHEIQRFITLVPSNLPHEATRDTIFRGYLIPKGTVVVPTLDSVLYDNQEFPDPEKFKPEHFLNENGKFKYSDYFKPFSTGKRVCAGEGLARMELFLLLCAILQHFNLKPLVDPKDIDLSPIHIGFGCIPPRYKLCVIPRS

Cytochrome P450 2D6 = Cytochrome P450 2D6 (Homo sapiens, UniProt P10635); assay: Inhibition of human CYP2D6 expressed in baculosomes at 1 uM using MOBFC as substrate preincubated for 20 mins followed by substrate and NADP+ addition and measured after 30 mins by fluorescence assay; format: ADME; conditions: recombinant enzyme, 0.5 h
Cytochrome P450 2D6, sequence (P10635 whole entry): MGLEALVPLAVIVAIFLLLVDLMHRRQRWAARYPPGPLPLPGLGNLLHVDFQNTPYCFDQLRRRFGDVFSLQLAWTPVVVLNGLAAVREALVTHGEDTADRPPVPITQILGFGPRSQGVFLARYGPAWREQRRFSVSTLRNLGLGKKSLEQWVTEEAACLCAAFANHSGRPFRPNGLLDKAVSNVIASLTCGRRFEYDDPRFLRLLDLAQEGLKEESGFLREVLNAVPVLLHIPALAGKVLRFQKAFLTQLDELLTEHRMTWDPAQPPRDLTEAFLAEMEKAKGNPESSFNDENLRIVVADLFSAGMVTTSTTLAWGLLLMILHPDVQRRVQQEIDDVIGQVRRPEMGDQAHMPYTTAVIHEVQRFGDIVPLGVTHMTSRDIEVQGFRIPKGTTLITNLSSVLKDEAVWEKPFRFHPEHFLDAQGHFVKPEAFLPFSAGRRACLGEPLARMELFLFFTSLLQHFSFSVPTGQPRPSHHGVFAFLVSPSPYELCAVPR

Mus musculus = assay: Antipyretic activity in LPS-induced CD1 mouse fever model assessed as effect on rectal temperature at 50 ug/kg, po administered as single dose and measured every 2 hrs up to 24 hrs; format: functional, organism-based

Row | inhibition (INH) (Cytochrome P450 3A4) | inhibition (INH) (Cytochrome P450 2E1) | inhibition (INH) (Cytochrome P450 2D6) | Structure (SMILES) | Activity (HepaRG [1]) | Activity (HepaRG [2]) | Activity (HepaRG [3]) | Activity (HepaRG [4]) | Activity (HepaRG [5]) | Activity (Mus musculus)
1 | Not Active | Not Active | Not Active | O=C(CN1C(=O)c2ccccc2S1(=O)=O)Nc1ccc(OC(=O)CCO[N+](=O)[O-])cc1 | Non-Toxic | Non-Toxic | Non-Toxic | Non-Toxic | Non-Toxic | inactive
2 | Not Active | Not Active | Not Active | O=C(CN1C(=O)c2ccccc2S1(=O)=O)Nc1ccc(OC(=O)CCCO[N+](=O)[O-])cc1 | Non-Toxic | Non-Toxic | Non-Toxic | Toxic | – | Active
3 | Not Active | Not Active | Not Active | O=C(CN1C(=O)c2ccccc2S1(=O)=O)Nc1ccc(O)cc1 | Toxic | Toxic | Non-Toxic | Non-Toxic | Toxic | –
4 | Active | Active | – | CC(=O)Nc1ccc(O)cc1 [ACETAMINOPHEN] | Toxic | Toxic | Toxic | Toxic | Toxic | Active
